Source: US20220110916A1, “Antioxidant and Use Thereof” (Bioradical Research Institute Corp., priority 2019, published 2022)

Columns and labels:
rat neuroid cells B50 = experiment: Alleviation of singlet oxygen (Rose Bengal + G-LED) cytotoxicity, Alamar Blue fluorescence; type: cell-based; details: for recovery of the fluorescence intensity (cellular activity): 0, 12.5, 25, 50, or 100 μmol/l, 200 nmol/l RB + G-LED 5 minutes, FIG. 3; for cytoprotective function compared with edaravone: B50 cells, RB + G-LED singlet oxygen
Method: Edaravone, ED2AP and BisEp-C3 were examined whether they had the function of alleviating neuronopathy. Specifically, singlet oxygen was generated by combining Rose Bengal (RB), which is a sensitizer, with green light (G-LED), and the function of alleviating the cytotoxicity of the generated singlet oxygen was examined with the cellular activity being an indicator.
First, rat neuroid cells B50 were cultured in 12-well dishes at 2×10^5 cells/well (medium: RPMI-1640 medium containing 5% FCS) overnight. After the culturing, the medium of each well was replaced with HBSS (1000 μl/well; phenol red free Ca+, Mg+) containing 200 nmol/l RB and edaravone, ED2AP, or BisEp-C3 having a predetermined concentration (0, 12.5, 25, 50, or 100 μmol/l). The dish was then irradiated with G-LED for 5 minutes to generate singlet oxygen. Thereafter, the medium of each well was replaced with 1000 μl of HBSS and Alamar Blue was added. The dish was then allowed to react for about 2 hours in an incubator at 37° C. and 5% CO2. After the reaction, fluorescence intensity (excitation wavelength: λ-560 nm, fluorescence wavelength: λ-595 nm) was measured with a plate reader (infinite200, Tecan Trading AG). In this experimental system, the higher the cellular activity, the more Alamar Blue is taken up and the higher the fluorescence intensity. As a control, fluorescence intensity was measured in the same manner except that sodium azide (Azide, NaN3) was added instead of the compounds so as to achieve a concentration of 4 mmol/l. As a negative control (NC), fluorescence intensity was measured in the same manner except that RB was not added. The relative value of the fluorescence intensity in the sample to which each compound was added was calculated with the fluorescence intensity of the negative control being 100.

[1] = test system: neutrophils isolated from the peripheral blood of healthy individuals; experiment: Superoxide production amount of PMA-stimulated neutrophils with PBS solutions stored for 10 days vs immediately after preparation; type: cell-based, human; details: PBS solution stored for 10 days vs immediately after preparation; 0, 6.25, 12.5, 25, 50, 100 or 20 μmol/l; FIG. 4
Method: (§1) First, ED2AP, BisEp-C3, edaravone, BisEp-C1, or BisEp-C1 (H2) was added to a neutrophil of 4×10^5 cells per sample so as to achieve a predetermined concentration (0, 12.5, 25, 50, 100, or 200 μmol/l, or 0, 125, 250, 500, 1250, 2500, or 5000 μmol/l) with 5 μmol of CLA, and then the cell suspension was seeded in flat-bottomed 96-well plates. The volume of the suspension was 200 μl/well, and phenol red free Ca+, Mg+ HBSS was used as the solution. In addition, the neutrophil was stimulated by adding PMA so as to achieve a concentration of 100 ng/ml. After the stimulation, a plate reader (Envision 2104 Multilabel Reader, produced by Perkin Elmer Co., Ltd.) was used to measure the chemiluminescence value over time for 30 minutes with the PMA stimulation time being a reference. The measurement interval was 30 seconds. The sum of the chemiluminescence values obtained every 30 seconds for 30 minutes was taken as the superoxide production amount. In addition, as a control, the superoxide production amount was measured in the same manner except that each compound was not added. The relative value of the superoxide production amount when each compound was added was calculated with the superoxide production amount of the control being 100.
PBS solutions of ED2AP, BisEp-C3, and edaravone were prepared in the same manner as in Example 2 and stored for 10 days. The superoxide production amount was calculated in the same manner as in Example 4 except that the PBS solution after storage was added instead of ED2AP, BisEp-C3, edaravone, BisEp-C1 or BisEp-C1 (H2) so as to achieve a predetermined concentration (0, 6.25, 12.5, 25, 50, 100 or 20 μmol/l) of ED2AP, BisEp-C3 or edaravone. Further, PBS solutions of ED2AP, BisEp-C3, and edaravone were prepared in the same manner as in Example 2, and the superoxide production amount was calculated in the same manner except that the PBS solution immediately after preparation was used. Then, the relative value of the superoxide production amount of each sample was calculated with the superoxide production amount of the sample of 0 μmol/l being 100.

[2] = test system: neutrophils isolated from the peripheral blood of healthy individuals; experiment: Superoxide production amount of PMA-stimulated neutrophils, CLA chemiluminescence; type: cell-based, human; details: for relative value of the superoxide production amount: 0-200 μmol/l or 0-5000 μmol/l, PMA 100 ng/ml, control being 100, FIG. 2; for reactive oxygen species-eliminating ability compared with edaravone: PMA-stimulated neutrophils, FIG. 2(A)
Method: For examining the reactive oxygen-eliminating effect of the antioxidant of the present invention, the superoxide produced by the neutrophils when the neutrophils isolated from the peripheral blood of healthy individuals were stimulated with PMA (phorbor-12-myristate-13-acetate) was used. The superoxide production amount was measured by chemiluminescence using CLA (2-methyl-6-pjenyl-3, 7-dihydroimidazo[1,2-a]pyrazine-3-one).
as §1

[3] = test system: rat auricular subcutaneous blood vessel; experiment: Vasodilation of rat auricular subcutaneous blood vessel after intravenous administration; type: in vivo
From the text: Oxidative stress caused by reactive oxygen species is known to reduce NO production in vascular endothelial cells, resulting in vasoconstriction and decreased blood flow. Therefore, using vasodilation as an indicator, it was examined whether the antioxidant of the present invention scavenges reactive oxygen species in vivo.
Eight-week old or older female rats (Wistar, body weight: approximately 200 g, n=1) were anesthetized by subcutaneous administration of urethane so as to be […] body weight. The hair of the auricles of the rats was then removed and the rats were fixed on a fixing table. […]
BisEP-C3 was dissolved in a saline solution to achieve a concentration of 3 mg/ml. […] Then, the hemodynamic course of the rat auricular subcutaneous blood vessel was photographed and recorded using a microscope at a predetermined period of time (30, 60, 120 or 180 minutes) before and after the administration.
The obtained images were classified into three blood vessel thicknesses (thick: 35-45 μm, medium: 15-20 μm, thin: 7-9 μm) based on the diameter of the blood vessel before administration. […] Further, for each selected site, the relative blood vessel diameter was calculated after the measurement of the blood vessel diameter, with the blood vessel diameter before administration being a reference (1). […]

SMILES	recovery of the fluorescence intensity (cellular activity) (rat neuroid cells B50)	cytoprotective function compared with edaravone (rat neuroid cells B50)	superoxide-eliminating ability after storage [1]	relative value of the superoxide production amount [2]	reactive oxygen species-eliminating ability compared with edaravone [2]	relative value of the blood vessel diameter ([3]; 3 mg/kg body weight intravenously, 30, 60, 120 or 180 minutes, vs saline control, n=1, FIG. 10)	severity of dilatation of the blood vessel diameter by blood vessel size ([3]; 3 mg/kg intravenously, thick 35-45 μm, medium 15-20 μm, thin 7-9 μm)
CC1=NN(c2ccccc2)C(=O)/C1=C/C=C/c1c(C)nn(-c2ccccc2)c1O (racemic) [ED2AP, 2,4-dihydro-4-[3-(5-hydroxy-3-methyl-1-phenyl-1H-pyrazol-4-yl)-2-propen-1-ylidene]-5-methyl-2-phenyl-3H-pyrazol-3-one]	recovered in a concentration-dependent manner	higher than that of edaravone	maintained the superoxide-eliminating ability equivalent to that immediately after preparation even after storage	suppressed the superoxide production amount in a concentration-dependent manner	more potent than edaravone at high concentrations		
CCN1N=C(C)/C(=C\C=C\c2c(C)nn(CC)c2O)C1=O (racemic) [BisEp-C3, 2,4-dihydro-4-[3-(1-ethyl-5-hydroxy-3-methyl-1H-pyrazol-4-yl)-2-propen-1-ylidene]-2-ethyl-5-methyl-3H-pyrazol-3-one]	recovered in a concentration-dependent manner	higher than that of edaravone	maintained the superoxide-eliminating ability equivalent to that immediately after preparation even after storage	suppressed the superoxide production amount in a concentration-dependent manner	more potent than edaravone at high concentrations	dilated at any time after administration as compared to the control	remarkably observed in the smaller blood vessels
